The compounds below were run on influenza virus (influenza A/Kitakyusyu/159/93(H3N2)).
Type: biochemical

**Q.** For `[I][Pd][I]` [PALLADIUM(II) IODIDE, palladium(II) iodide], which HA titer is on record?
**A.** 4

**Q.** How did the HA titer turn out when `[Cu+].[I-]` [COPPER(I) IODIDE, copper(I) iodide] was run?
**A.** 16

**Q.** `N#C[S-].[Cu+]` [COPPER(I) THIOCYANATE, copper(I) thiocyanate] was tested. Which HA titer did it give?
**A.** 2

**Q.** With silver(I) iodide as the compound, how does the HA titer read?
**A.** 64

**Q.** `[I-].[I-].[Pt+2]` [PLATINUM(II) IODIDE, platinum(II) iodide] was tested. Which HA titer did it give?
**A.** <2

From patent publication US10744351B2 (priority 2009, dated 2020)
